In the assay the target is T1, RANTES/MIP-1α chemokine receptor (CCR1) in THP-1 cell membranes (Homo sapiens, UniProt P32246).
T1 construct: Membranes were prepared from THP-1 cells (ATCC #TIB202); host or cells: THP-1 cells (membrane preparation)
T1 sequence (P32246 1-355): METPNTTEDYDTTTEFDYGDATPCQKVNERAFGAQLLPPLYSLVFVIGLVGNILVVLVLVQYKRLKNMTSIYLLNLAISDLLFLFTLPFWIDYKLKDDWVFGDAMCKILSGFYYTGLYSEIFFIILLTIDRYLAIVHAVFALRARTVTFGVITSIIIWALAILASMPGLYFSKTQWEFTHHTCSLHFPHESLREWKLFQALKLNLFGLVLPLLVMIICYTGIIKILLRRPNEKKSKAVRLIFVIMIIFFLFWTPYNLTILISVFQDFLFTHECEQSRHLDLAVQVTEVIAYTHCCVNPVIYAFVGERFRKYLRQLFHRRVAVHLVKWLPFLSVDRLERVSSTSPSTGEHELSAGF
As to the kind of experiment: Receptor binding assay: 125I-RANTES or 125I-MIP-1α binding to THP-1 cell membranes. Conditions: inhibitor concentration required for 50% inhibition of specific binding; 125I-RANTES or 125I-MIP-1α as ligand, THP-1 cell membranes; read-out: IC50.
In the case of `CC(C)(O)c1ccc2c(c1)C(=CCCN1CCC(C(=O)c3ccc(Cl)cc3)CC1)c1cccnc1CO2` [Example 496, (4-Chloro-phenyl)-(1-{3-[7-(1-hydroxy-1-methyl-ethyl)-11H-10-oxa-1-aza-dibenzo[a,d]cyclohepten-5-ylidene]-propyl}-piperidin-4-yl)-methanone], the IC50 was under 10 µM.

With “1-[3-(7-(2-Carboxy)ethyl-5,11-dihydro[1]benzoxepino[2,3-b]pyridin-5-ylidene)propyl]-4-(4-chlorophenyl)-piperidin-4-ol [Example 123]”, the IC50 is under 1 µM.

As for `CC(C)(O)c1ccc2c(c1)C(=CCCN1CCC(F)(c3ccc(Cl)cc3)CC1)c1cccnc1CO2` [Example 467, 2-(5-{3-[4-(4-Chloro-phenyl)-4-fluoro-piperidin-1-yl]-propylidene}-5,11-dihydro-10-oxa-1-aza-dibenzo[a,d]cyclohepten-7-yl)-propan-2-ol], the IC50 is under 1 µM.

Regarding “1-(4-Chlorophenyl)-4-[3-(5,11-dihydro-7-methoxy[1]benzoxepino[2,3-b]pyridin-5-ylidene)propyl]piperazine [Example 71]”, the IC50 is under 1 µM.

Regarding “1-[3-(5,11-Dihydro-7-methoxy[1]benzoxepino[2,3-b]pyridin-5-ylidene)propyl]-4-(4-fluorophenyl)piperidin-4-ol [Example 77]”, the IC50 is under 1 µM.

For `COC1CN(CCC=C2c3cc(C(C)(C)O)ccc3OCc3ncccc32)CCC1(OC)c1ccc(Cl)cc1` (stereo not drawn) [Example 475, 2-(5-{3-[4-(4-Chloro-phenyl)-3,4-dimethoxy-piperidin-1-yl]-propylidene}-5,11-dihydro-10-oxa-1-aza-dibenzo[a,d]cyclohepten-7-yl)-propan-2-ol], the IC50 is under 1 µM.

For `Oc1ccc2c(c1)C(=CCCN1CC=C(c3ccc(Cl)cc3)CC1)c1cccnc1CO2` [Example 193], the IC50 is under 1 µM.

In the case of “4-(4-Chlorophenyl)-1-[3-(5,11-dihydro-7-methylaminocarbonylmethyloxy[1]benzoxepino[2,3-b]pyridin-5-ylidene)propyl]piperidin-4-ol [Example 182]”, the IC50 is under 1 µM.

Consider “1-[3-(5,11-Dihydro-7-methoxy[1]benzoxepino[2,3-b]pyridin-5-ylidene)propyl]-4-(4-hydroxyphenyl)piperidine [Example 183]”, for which the IC50 is under 1 µM.

Consider “1-[3-(5,11-Dihydro-7-methoxy[1]benzoxepino[2,3-b]pyridin-5-ylidene)propyl]-4-(4-trifluoromethylphenyl)piperidin-4-ol [Example 150]”, for which the IC50 is under 10 µM.

Take `CCN(Cc1ccc(Cl)cc1)[C@@H]1CCN(CCC=C2c3cc(C(=O)O)ccc3OCc3ncccc32)C1` [Example 527, (R)-5-(3-{3-[(4-Chloro-benzyl)-ethyl-amino]-pyrrolidin-1-yl}-propylidene)-5,11-dihydro-10-oxa-1-aza-dibenzo[a,d]cycloheptene-7-carboxylic acid]: the IC50 was under 1 µM.

As to `OC1(c2ccc(Cl)cc2)CCN(CCC=C2c3cc(OCc4nnn[nH]4)ccc3OCc3ncccc32)CC1` [Example 132], the IC50 is under 1 µM.

With “1-[3-(7-Chloro-5,11-dihydro[1]benzoxepino[2,3-b]pyridin-5-ylidene)propyl]-4-(4-chlorophenyl)piperidin-4-ol [Example 117]”, the IC50 was under 1 µM.

Consider “1-[3-(7-(1-Carboxy-1-methylethyl)oxy-5,11-dihydro[1]benzoxepino[2,3-b]pyridin-5-ylidene)propyl]-4-(4-chlorophenyl)piperidine [Example 159]”, for which the IC50 was under 1 µM.

Take `O=C1Nc2ccccc2C(=CCCN2CCC(O)(c3ccc(Cl)cc3)CC2)c2ccccc21` [Example 39, 4-(4-Chlorophenyl)-1-[3-(6,11-dihydro-6-oxo-5H-dibenz[b,e]azepin-11-ylidene)propyl]piperidin-4-ol]: the 50% inhibitory concentration (IC50) was under 10 µM.

For the compound “1-Cyclohexyl-4-[3-(5,11-dihydro-7-methoxy[1]benzoxepino[2,3-b]pyridin-5-ylidene)propyl]piperazine [Example 73]”, the IC50 is under 10 µM.

With “4-(4-Chlorophenyl)-1-[3-(5,11-dihydro-7-(1-butoxy)carbonyl-[1]benzoxepino[2,3-b]pyridin-5-ylidene) propyl]piperidine-4-ol [Example 427]”, the 50% inhibitory concentration (IC50) was under 1 µM.

Consider “4-(7-Chloroindol-3-yl)-1-[3-(5,11-dihydro-7-methoxy[1]benzoxepino[2,3-b]pyridin-5-ylidene)propyl]piperidine [Example 186]”, for which the IC50 was under 1 µM.

For the compound `C[C@H]1CN(CCC=C2c3cc(C(C)(C)O)ccc3OCc3ncccc32)CCN1c1ccc(Cl)cc1` [Example 556, 2-(5-{3-[4-(4-Chloro-phenyl)-3-(S)-methyl-piperazin-1-yl]-propylidene}-5,11-dihydro-10-oxa-1-aza-dibenzo[a,d]cyclohepten-7-yl)-propan-2-ol], the IC50 was under 1 µM.

Turning to `CC(O)C1(c2ccc(Cl)cc2)CCN(CCC=C2c3cc(C(C)(C)O)ccc3OCc3ncccc32)CC1` (stereo not drawn) [Example 462, 2-(5-{3-[4-(4-chloro-phenyl)-4-(1-hydroxy-ethyl)-piperidin-1-yl]-propylidene}-5,11-dihydro-10-oxa-1-aza-dibenzo [a,d]cyclohepten-7-yl)-propan-2-ol], the IC50 was under 10 µM.

For the compound “1-[3-(5,11-Dihydro-7-methoxy[1]benzoxepino[2,3-b]pyridin-5-ylidene)propyl]-4-(2-hydroxyphenyl)piperidine [Example 184]”, the IC50 was under 10 µM.

As to “1-[3-(5,11-Dihydro-7-methoxy[1]benzoxepino[2,3-b]pyridin-5-ylidene)propyl]-4-(4-fluoro-3-methylphenyl)piperidin-4-ol [Example 143]”, the IC50 was under 1 µM.

On to “4-(4-Chlorophenyl)-1-[3-(5,11-dihydro-7-methoxy[1]benzoxepino[2,3-b]pyridin-5-ylidene)propyl]-1,2,3,6-tetrahydropyridine [Example 194]”, for which the IC50 was under 1 µM.

In the case of `OCC(O)COc1ccc2c(c1)C(=CCCN1CCC(O)(c3ccc(Cl)cc3)CC1)c1cccnc1CO2` (stereo not drawn) [Example 205, 4-(4-Chlorophenyl)-1-[3-(5,11-dihydro-7-(1-(2,3-dihydroxy)propyloxy)[1]benzoxepino[2,3-b]pyridin-5-ylidene)propyl]piperidin-4-ol], the IC50 is under 1 µM.

In the case of `CC1(C)CN(CCC=C2c3cc(OCCO)ccc3OCc3ncccc32)CCC1(O)c1ccc(Cl)cc1` (stereo not drawn) [Example 507, 4-(4-Chloro-phenyl)-1-{3-[7-(2-hydroxy-ethoxy)-11H-10-oxa-1-aza-dibenzo[a,d]cyclohepten-5-ylidene]-propyl}-3,3-dimethyl-piperidin-4-ol], the IC50 was under 1 µM.

For the compound “1-[3-(5,11-Dihydro-7-methoxy[1]benzoxepino[2,3-b]pyridin-5-ylidene)propyl]-4-(4-hydroxyphenyl)piperidin-4-ol [Example 142]”, the half-maximal inhibitory concentration (IC50) was under 10 µM.

Consider “8-[3-(5,11-Dihydro-7-methoxy[1]benzoxepino[2,3-b]pyridin-5-ylidene)propyl]-1-phenyl-1,3,8-triazaspiro[4,5]decan-4-one [Example 69]”, for which the IC50 is under 1 µM.

These data come from patent US8653096B2, “Chemokine receptor antagonists and methods of use thereof” (Millennium Pharmaceuticals, Inc., priority 2001, dated 2014).
